Results reported in US20240018161A1, “MODULATORS OF CYSTIC FIBROSIS TRANSMEMBRANE CONDUCTANCE REGULATOR” (VERTEX PHARMACEUTICALS INCORPORATED, priority 2020, published 2024).
Like-named read-outs stand apart in the source and are kept apart here.

Target: CFTR-mediated chloride transport in human intestinal epithelial enteroid cells (Homo sapiens, UniProt P13569)
Test: Membrane potential dye, Enteroid Assay A
Format: cell-based
Settings: for EC50: read-out: Ent. A EC50
Protocol: Base medium (ADF+++) consisted of Advanced DMEM/Ham's F12, 2 mM Glutamax, 10 mM HEPES, […] penicillin/streptomycin.
Bath 1 Buffer consisted of 1 mM MgCl2, 160 mM NaCl, 4.5 mM KCl, 10 mM HEPES, 10 mM Glucose, 2 mM CaCl2.
Chloride Free Buffer consisted of 1 mM Magnesium Gluconate, 2 mM Calcium Gluconate, 4.5 mM Potassium Gluconate, 160 mM Sodium Gluconate, 10 mM HEPES, 10 mM Glucose.
Bath1 Dye Solution consisted of Bath 1 Buffer, 0.04% Pluronic F127, 20 μM Methyl Oxonol, 30 μM CaCCinh-A01, 30 μM Chicago Sky Blue.
Chloride Free Dye Solution consisted of Chloride Free Buffer, 0.04% Pluronic F127, 20 μM Methyl Oxonol, 30 μM CaCCinh-A01, 30 μM Chicago Sky Blue.
3. Enteroid Cell Harvesting and Seeding
Cells were recovered in cell recovery solution, collected by centrifugation at 650 rpm for 5 min at 4° C., resuspended in TryPLE and incubated for 5 min at 37° C. Cells were then collected by centrifugation at 650 rpm for 5 min at 4° C. and resuspended in IEMM containing 10 μM ROCK inhibitor (RI).
4. Membrane Potential Dye, Enteroid Assay A
Briefly, cells were washed 5 times in Bath 1 Buffer. Bath 1 Dye Solution was added, and the cells were incubated for 25 min at room temperature. Following dye incubation, cells were washed 3 times in Chloride Free Dye Solution. Chloride transport was initiated by addition of Chloride Free Dye Stimulation Solution and the fluorescence signal was read for 15 min. […] Chloride transport was then expressed as a percentage of the chloride transport following treatment with 3 μM N-[(6-amino-2-pyridyl)sulfonyl]-6-(3-fluoro-5-isobutoxy-phenyl)-2-[(4S)-2,2,4-trimethylpyrrolidin-1-yl]pyridine-3-carboxamide, 3 μM (R)-1-(2,2-difluorobenzo[d][1,3]dioxol-5-yl)-N-(1-(2,3-dihydroxypropyl)-6-fluoro-2-(1-hydroxy-2-methylpropan-2-yl)-1H-indol-5-yl)cyclopropanecarboxamide and 300 nM acute N-[2,4-bis(1,1-dimethylethyl)-5-hydroxyphenyl]-1,4-dihydro-4-oxoquinoline-3-carboxamide triple combination control (% Activity).

[1] = percentage of chloride transport of triple combination control (3 μM N-[(6-amino-2-pyridyl)sulfonyl]-6-(3-fluoro-5-isobutoxy-phenyl)-2-[(4S)-2,2,4-trimethylpyrrolidin-1-yl]pyridine-3-carboxamide based)
[2] = enteroid cells incubated with test compound 18-24 hours, acute 10 μM forskolin and 300 nM N-[2,4-bis(1,1-dimethylethyl)-5-hydroxyphenyl]-1,4-dihydro-4-oxoquinoline-3-carboxamide

Chain of CFTR-mediated chloride transport in human intestinal epithelial enteroid cells (P13569 with tags, fused parts or gaps DEL508-508): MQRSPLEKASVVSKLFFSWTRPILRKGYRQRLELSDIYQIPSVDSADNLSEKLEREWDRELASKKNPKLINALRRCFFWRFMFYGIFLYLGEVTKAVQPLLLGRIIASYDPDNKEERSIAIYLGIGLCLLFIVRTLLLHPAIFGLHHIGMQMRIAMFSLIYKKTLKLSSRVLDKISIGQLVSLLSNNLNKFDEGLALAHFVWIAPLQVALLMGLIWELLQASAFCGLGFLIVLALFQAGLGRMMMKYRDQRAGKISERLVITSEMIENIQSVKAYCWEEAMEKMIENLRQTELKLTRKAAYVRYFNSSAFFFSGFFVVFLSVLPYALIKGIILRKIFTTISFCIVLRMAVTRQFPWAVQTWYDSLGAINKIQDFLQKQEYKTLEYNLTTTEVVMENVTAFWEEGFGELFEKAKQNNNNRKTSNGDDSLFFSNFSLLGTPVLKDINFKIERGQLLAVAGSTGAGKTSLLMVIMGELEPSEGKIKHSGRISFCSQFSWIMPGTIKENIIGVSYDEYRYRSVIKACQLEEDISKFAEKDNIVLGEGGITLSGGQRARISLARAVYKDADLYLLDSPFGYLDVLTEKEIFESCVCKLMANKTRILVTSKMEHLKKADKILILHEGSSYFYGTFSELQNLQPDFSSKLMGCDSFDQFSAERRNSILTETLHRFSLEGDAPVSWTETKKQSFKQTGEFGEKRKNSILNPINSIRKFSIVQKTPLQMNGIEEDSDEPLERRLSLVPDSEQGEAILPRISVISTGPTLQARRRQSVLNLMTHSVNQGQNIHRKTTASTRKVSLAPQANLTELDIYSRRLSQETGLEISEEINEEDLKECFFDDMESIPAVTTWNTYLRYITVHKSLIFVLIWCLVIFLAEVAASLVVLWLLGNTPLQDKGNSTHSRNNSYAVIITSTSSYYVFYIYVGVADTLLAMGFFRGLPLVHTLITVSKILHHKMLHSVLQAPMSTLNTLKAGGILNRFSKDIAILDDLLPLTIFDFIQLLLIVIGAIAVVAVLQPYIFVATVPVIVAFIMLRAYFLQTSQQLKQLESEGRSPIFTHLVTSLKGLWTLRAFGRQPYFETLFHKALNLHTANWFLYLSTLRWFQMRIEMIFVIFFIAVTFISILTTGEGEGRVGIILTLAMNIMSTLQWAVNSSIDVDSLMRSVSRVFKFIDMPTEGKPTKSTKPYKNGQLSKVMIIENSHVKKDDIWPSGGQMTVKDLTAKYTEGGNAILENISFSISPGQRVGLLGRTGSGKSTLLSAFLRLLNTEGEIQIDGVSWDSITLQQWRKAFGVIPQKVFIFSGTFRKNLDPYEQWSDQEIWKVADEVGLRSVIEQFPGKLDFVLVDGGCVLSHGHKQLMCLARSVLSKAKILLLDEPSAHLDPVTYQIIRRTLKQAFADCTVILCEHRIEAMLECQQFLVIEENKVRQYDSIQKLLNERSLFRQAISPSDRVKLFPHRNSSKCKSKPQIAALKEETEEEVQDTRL

Structure (SMILES) | Ent. A Max Activity (%) (Enteroid Assay A) | EC50 (Enteroid Assay A) [nM] | other results
Cc1cccc(C)c1-c1cc2nc(n1)NS(=O)(=O)c1cccc(c1)C(=O)N1C[C@@H](CN(CC(F)(F)F)CC1CC(C)C)O2 (stereo in doubt) [Compound 105, (16R,20R)-12-(2,6-Dimethylphenyl)-20-(2-methylpropyl)-18-(2,2,2-trifluoroethyl)-15-oxa-8λ^6-thia-1,9,11,18,22-pentaazatetracyclo[14.4.1.13,7.110,14]tricosa-3(23),4,6,10,12,14(22)-hexaene-2,8,8-trione] | + (+ is <30%) | – | –
Cc1cccc(C)c1-c1cc2nc(n1)NS(=O)(=O)c1cccc(c1)CN1C[C@@H](CN(Cc3ccccc3)CC1=O)O2 (stereo in doubt) [Compound 144] | ++ (++ is 30-60%) | < 1000 | –
Cc1cccc(C)c1-c1cc2nc(n1)NS(=O)(=O)c1cccc(c1)C(=O)N1CCN(C[C@@H]3CC(C)(C)NC3=O)C[C@@H]1CO2 (stereo in doubt) [Compound 293] | – | – | Ent. A Max Activity (%) [1]: + (+ is <300%)
Cc1cccc(C)c1-c1cc2nc(n1)NS(=O)(=O)c1cccc(c1)C(=O)N1Cc3ccccc3[C@@H](O2)[C@H]1CC(C)C (stereo in doubt) [Compound 332] | – | – | EC50 [2]: < 1000 nM; Ent. A Max Activity (%) [1]: +++ (+++ is >60%)
Cc1cccc(C)c1-c1cc2nc(n1)NS(=O)(=O)c1cccc(c1)C(=O)N1CCNC[C@H](C1)O2 [Compound 2, (16R)-12-(2,6-Dimethylphenyl)-15-oxa-8λ^6-thia-1,9,11,18,22-pentaazatetracyclo[14.4.1.13,7.110,14]tricosa-3,5,7(23),10,12,14(22)-hexaene-2,8,8-trione] | – | – | EC50 [2]: 3000 to 30000 nM; Ent. A Max Activity (%) [1]: +++ (+++ is >60%)
Cc1cccc(C)c1-c1cc2nc(n1)NS(=O)(=O)c1cccc(c1)C(=O)N1CCN(C3CC4(CCCCC4)C3)C[C@H](C1)O2 [Compound 3, (16R)-12-(2,6-Dimethylphenyl)-18-{spiro[3.5]nonan-2-yl}-15-oxa-8λ^6-thia-1,9,11,18,22-pentaazatetracyclo[14.4.1.13,7.110,14]tricosa-3(23),4,6,10(22),11,13-hexaene-2,8,8-trione] | +++ (+++ is >600%) | < 1000 | –
Cc1cccc(C)c1-c1cc2nc(n1)NS(=O)(=O)c1cccc(c1)C(=O)N1CCN(C3CCC(C)(C)CC3)C[C@H](C1)O2 [Compound 5, (16R)-18-(4,4-Dimethylcyclohexyl)-12-(2,6-dimethylphenyl)-15-oxa-8λ^6-thia-1,9,11,18,22-pentaazatetracyclo[14.4.1.13,7.110,14]tricosa-3(23),4,6,10,12,14(22)-hexaene-2,8,8-trione] | – | – | Ent. A Max Activity (%): +++ (key: +++ is >600%; ++ is 30-60%; + is <30%); EC50: < 1000 nM
CCC(CC)N1CCN2C[C@@H](C1)Oc1cc(-c3c(C)cccc3C)nc(n1)NS(=O)(=O)c1cccc(c1)C2=O [Compound 11, (16R)-12-(2,6-Dimethylphenyl)-18-(1-ethylpropyl)-8,8-dioxo-15-oxa-8λ^6-thia-1,9,11,18,22-pentazatetracyclo[14.4.1.13,7.110,14]tricosa-3,5,7(23),10,12,14(22)-hexaen-2-one] | +++ (+++ is >600%) | < 1000 | –
Cc1cccc(C)c1-c1cc2nc(n1)NS(=O)(=O)c1cccc(c1)C(=O)N1CCN(C3CCC4(CCCCC4)CC3)C[C@H](C1)O2 [Compound 12] | +++ (+++ is >600%) | < 1000 | –
Cc1cccc(C)c1-c1cc2nc(n1)NS(=O)(=O)c1cccc(c1)C(=O)N1CCN(CC3(C)CCOCC3)C[C@H](C1)O2 [Compound 14] | +++ (+++ is >600%) | < 1000 | –
Cc1cccc(C)c1-c1cc2nc(n1)NS(=O)(=O)c1cccc(c1)C(=O)N1CCN(Cc3ccc(C(C)(C)C)cc3)C[C@H](C1)O2 [Compound 16] | +++ (+++ is >600%) | < 1000 | –
Cc1cccc(C)c1-c1cc2nc(n1)NS(=O)(=O)c1cccc(c1)C(=O)N1CCN(CC3C4(CC4)C34CC4)C[C@H](C1)O2 [Compound 17] | +++ (+++ is >600%) | < 1000 | –
Cc1cccc(C)c1-c1cc2nc(n1)NS(=O)(=O)c1cccc(c1)C(=O)N1CCN(CCC3C4(CC4)C34CC4)C[C@H](C1)O2 [Compound 18] | + (+ is <30%) | 1000 to 3000 | –
Cc1cccc(C)c1-c1cc2nc(n1)NS(=O)(=O)c1cccc(c1)C(=O)N1CCN(CC(C)(C)C)C[C@H](C1)O2 [Compound 19] | +++ (+++ is >600%) | < 1000 | –
Cc1cccc(C)c1-c1cc2nc(n1)NS(=O)(=O)c1cccc(c1)C(=O)N1CCN(C3C(C)(C)CC3(C)C)C[C@H](C1)O2 [Compound 20] | +++ (+++ is >600%) | < 1000 | –
Cc1cccc(C)c1-c1cc2nc(n1)NS(=O)(=O)c1cccc(c1)C(=O)N1CCN(CC3CC(C(=O)O)C3)C[C@H](C1)O2 (some centres unmarked) [Compound 29] | +++ (+++ is >600%) | 3000 to 30000 | –

Continued, in another order:

Ent. A Max Activity (%) (Enteroid Assay A) | EC50 (Enteroid Assay A) [nM] | Structure (SMILES) | other results
+++ (+++ is >600%) | < 1000 | Cc1cccc(C)c1-c1cc2nc(n1)NS(=O)(=O)c1cccc(c1)C(=O)N1CCN(C3CCC(F)(F)CC3)C[C@H](C1)O2 [Compound 4, (16R)-18-(4,4-Difluorocyclohexyl)-12-(2,6-dimethylphenyl)-15-oxa-8λ^6-thia-1,9,11,18,22-pentaazatetracyclo[14.4.1.13,7.110,14]tricosa-3(23),4,6,10(22),11,13-hexaene-2,8,8-trione] | –
+++ (+++ is >600%) | < 1000 | Cc1cccc(C)c1-c1cc2nc(n1)NS(=O)(=O)c1cccc(c1)C(=O)N1CCN(C3CCCC3)C[C@H](C1)O2 [Compound 6, (16R)-18-cyclopentyl-12-(2,6-dimethylphenyl)-8,8-dioxo-15-oxa-8λ^6-thia-1,9,11,18,22-pentazatetracyclo[14.4.1.13,7.110,14]tricosa-3,5,7(23),10(22),11,13-hexaen-2-one] | –
+++ (+++ is >600%) | < 1000 | Cc1cccc(C)c1-c1cc2nc(n1)NS(=O)(=O)c1cccc(c1)C(=O)N1CCN(C3CC4(CCCC4)C3)C[C@H](C1)O2 [Compound 8, (16R)-12-(2,6-Dimethylphenyl)-18-{spiro[3.4]octan-2-yl}-15-oxa-8λ^6-thia-1,9,11,18,22-pentaazatetracyclo[14.4.1.13,7.110,14]tricosa-3(23),4,6,10(22),11,13-hexaene-2,8,8-trione] | –
+++ (+++ is >600%) | < 1000 | Cc1cccc(C)c1-c1cc2nc(n1)NS(=O)(=O)c1cccc(c1)C(=O)N1CCN(C3CCC4(CC3)CC4)C[C@H](C1)O2 [Compound 13] | –
+++ (+++ is >600%) | < 1000 | Cc1cccc(C)c1-c1cc2nc(n1)NS(=O)(=O)c1cccc(c1)C(=O)N1CCN(C3CCC4CC43)C[C@H](C1)O2 (some centres unmarked) [Compound 15] | –
+++ (+++ is >600%) | < 1000 | Cc1cccc(C)c1-c1cc2nc(n1)NS(=O)(=O)c1cccc(c1)C(=O)N1CCN(C3CC(F)(F)C3)C[C@H](C1)O2 [Compound 21] | –
+++ (+++ is >600%) | < 1000 | Cc1cccc(C)c1-c1cc2nc(n1)NS(=O)(=O)c1cccc(c1)C(=O)N1CCN(C3CCCCC3)C[C@H](C1)O2 [Compound 22] | –
+++ (+++ is >600%) | < 1000 | Cc1cccc(C)c1-c1cc2nc(n1)NS(=O)(=O)c1cccc(c1)C(=O)N1CCN(C3CC4(CC4)C3)C[C@H](C1)O2 [Compound 23] | –
++ (++ is 30-60%) | < 1000 | Cc1cccc(C)c1-c1cc2nc(n1)NS(=O)(=O)c1cccc(c1)C(=O)N1CCN(C3CC(C)(C)C3)C[C@H](C1)O2 [Compound 24] | –
++ (++ is 30-60%) | 3000 to 30000 | Cc1cccc(C)c1-c1cc2nc(n1)NS(=O)(=O)c1cccc(c1)C(=O)N1CCN(C3CC4(COC4)C3)C[C@H](C1)O2 [Compound 25] | –
+++ (+++ is >600%) | < 1000 | Cc1cccc(C)c1-c1cc2nc(n1)NS(=O)(=O)c1cccc(c1)C(=O)N1CCN(C3CC4(CCC4)C3)C[C@H](C1)O2 [Compound 26] | –
++ (++ is 30-60%) | < 1000 | Cc1cccc(C)c1-c1cc2nc(n1)NS(=O)(=O)c1cccc(c1)C(=O)N1CCN(C3CCC3)C[C@H](C1)O2 [Compound 27] | –
+++ (+++ is >600%) | 3000 to 30000 | Cc1cccc(C)c1-c1cc2nc(n1)NS(=O)(=O)c1cccc(c1)C(=O)N1CCN(C3CCOCC3)C[C@H](C1)O2 [Compound 28] | –
